In ChEMBL document CHEMBL6078688, “Discovery of Novel MyD88 Inhibitor A5S to Alleviate Acute Lung Injury with Favorable Drug-like Properties” (J Med Chem, 2024):
Active and inactive are the calls of the source. No cut-off for these calls is given here.

How the values were obtained:
Mus musculus [1] = experiment: Antiinflammatory activity in cecal ligation and puncture induced sepsis C57BL/6 mouse model assessed as reduction in TNF-alpha mRNA level in lung at 20 mg/kg,po administrated with compound for 6 hrs followed by CLP induction and measured after 12 hrs by RT-PCR analysis; assay type: functional, organism-based; conditions: time 18.0 hrs
[2] = AUC (0 to t) in Sprague-Dawley rat at 20 mg/kg,po administration measured upto 24 hrs by LC-MS/MS analysis; assay type: ADME, organism-based; conditions: in vivo
[3] = Half life in Sprague-Dawley rat at 20 mg/kg,po administration measured upto 24 hrs by LC-MS/MS analysis; assay type: ADME, organism-based; conditions: in vivo
J774.A1 [4] = experiment: Inhibition of NF-kappaB signalling pathway in LPS-induced mouse J774.A1 cells assessed as downregulation of p65 phosphorylation by Western blotting analysis; assay type: cell-based
[5] = Stability of compound in enzyme free simulated intestinal fluid measured upto 12 hrs; assay type: physicochemical; conditions: simulated gi fluid
Mus musculus [6] = experiment: Antiinflammatory activity in cecal ligation and puncture induced sepsis C57BL/6 mouse model assessed as reduction in tissue destruction of lung at 20 mg/kg,po administrated with compound for 6 hrs followed by CLP induction and measured after 12 hrs by H and E staining based analysis; assay type: functional, organism-based; conditions: time 18.0 hrs
Mus musculus [7] = experiment: Antiinflammatory activity in cecal ligation and puncture induced sepsis C57BL/6 mouse model assessed as reduction in IL-6 mRNA level in lung at 20 mg/kg,po administrated with compound for 6 hrs followed by CLP induction and measured after 12 hrs by RT-PCR analysis; assay type: functional, organism-based; conditions: time 18.0 hrs
[8] = biological target: Myeloid differentiation primary response protein MyD88 (Homo sapiens, UniProt Q99836); experiment: Binding affinity to CM5 sensor chip immobilized human MyD88 DD domain assessed as dissociation constant by SPR analysis
[9] = Acute toxicity in C57BL/6 mouse assessed as pathological change in heart at 500 mg/kg,po administration measured upto 11 days by hematoxylin and eosin staining based assay; assay type: organism-based; conditions: in vivo, 264 h, time < 11 day
Mus musculus [10] = experiment: Antiinflammatory activity in cecal ligation and puncture induced sepsis C57BL/6 mouse model assessed as reduction in inflammatory infiltration in lung at 20 mg/kg,po administrated with compound for 6 hrs followed by CLP induction and measured after 12 hrs by H and E staining based analysis; assay type: functional, organism-based; conditions: time 18.0 hrs
J774.A1 [11] = experiment: Inhibition of MAPK signalling pathway in LPS stimulated mouse J774.A1 cells assessed as downregulation of p38 phosphorylation by Western blotting analysis; assay type: cell-based
Mus musculus [12] = experiment: Antiinflammatory activity against LPS induced acute lung injury C57BL/6 mouse model assessed as reduction in spleen weight at 20 mg/kg,po administrated with compound for 30 mins followed by LPS treatment and measured after 6 hrs; assay type: functional, organism-based; conditions: time 6.5 hrs
Mus musculus [13] = experiment: Antiinflammatory activity in cecal ligation and puncture induced sepsis C57BL/6 mouse model assessed as reduction in TNF-alpha level in serum at 20 mg/kg,po administrated with compound for 6 hrs followed by CLP induction and measured after 12 hrs by ELISA; assay type: functional, organism-based; conditions: time 18.0 hrs
Mus musculus [14] = experiment: Antiinflammatory activity in cecal ligation and puncture induced sepsis C57BL/6 mouse model assessed as reduction in TNF-alpha level in BALF at 20 mg/kg,po administrated with compound for 6 hrs followed by CLP induction and measured after 12 hrs by ELISA; assay type: functional, organism-based; conditions: time 18.0 hrs
Mus musculus [15] = experiment: Antiinflammatory activity in cecal ligation and puncture induced sepsis C57BL/6 mouse model assessed as reduction in pulmonary congestion in lung at 20 mg/kg,po administrated with compound for 6 hrs followed by CLP induction and measured after 12 hrs by H and E staining based analysis; assay type: functional, organism-based; conditions: time 18.0 hrs
[16] = Oral bioavailability in Sprague-Dawley rat at 20 mg/kg administration measured upto 24 hrs by LC-MS/MS analysis; assay type: ADME, organism-based; conditions: in vivo
[17] = AUC (0 to infinity) in Sprague-Dawley rat at 1 mg/kg,iv administration measured upto 24 hrs by LC-MS/MS analysis; assay type: ADME, organism-based; conditions: in vivo
[18] = Cmax in Sprague-Dawley rat at 1 mg/kg,iv administration measured upto 24 hrs by LC-MS/MS analysis; assay type: ADME, organism-based; conditions: in vivo
J774.A1 [19] = experiment: Anti-inflammatory activity in LPS-induced mouse J774.A1 cells assessed as inhibition of IL-6 production by ELISA; assay type: functional, cell-based
[20] = Stability of compound in enzyme free simulated gastric fluid measured upto 12 hrs; assay type: physicochemical; conditions: simulated gi fluid
[21] = Acute toxicity in C57BL/6 mouse assessed as pathological change in lung at 500 mg/kg,po administration measured upto 11 days by hematoxylin and eosin staining based assay; assay type: organism-based; conditions: in vivo, 264 h, time < 11 day
Mus musculus [22] = experiment: Antiinflammatory activity in cecal ligation and puncture induced sepsis C57BL/6 mouse model assessed as reduction in neutrophil infiltration in lung at 20 mg/kg,po administrated with compound for 6 hrs followed by CLP induction and measured after 12 hrs by immunohistochemical staining based analysis; assay type: functional, organism-based; conditions: time 18.0 hrs
J774.A1 [23] = experiment: Anti-inflammatory activity in LPS-induced mouse J774.A1 cells assessed as inhibition of TNF-alpha production by ELISA; assay type: functional, cell-based
Mus musculus [24] = experiment: Antiinflammatory activity in cecal ligation and puncture induced sepsis C57BL/6 mouse model assessed as reduction in interstitial edema in lung at 20 mg/kg,po administrated with compound for 6 hrs followed by CLP induction and measured after 12 hrs by H and E staining based analysis; assay type: functional, organism-based; conditions: time 18.0 hrs

Myeloid differentiation primary response protein MyD88, sequence (Q99836 whole entry, the tested form may be a part): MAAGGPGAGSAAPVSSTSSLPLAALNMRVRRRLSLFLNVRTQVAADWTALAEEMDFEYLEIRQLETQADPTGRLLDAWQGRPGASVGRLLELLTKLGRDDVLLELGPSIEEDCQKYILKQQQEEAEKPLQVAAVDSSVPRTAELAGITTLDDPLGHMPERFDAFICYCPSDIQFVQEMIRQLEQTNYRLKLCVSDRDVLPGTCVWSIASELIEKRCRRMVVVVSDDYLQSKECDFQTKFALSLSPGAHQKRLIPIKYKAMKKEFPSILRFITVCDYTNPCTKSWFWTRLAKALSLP

O[C@H](COc1ccc(Br)cc1)CN1CCN(Cc2cc3ccccc3[nH]2)CC1
Activity (Mus musculus [1]): Active
AUC(0-t) at 24 h [2]: 2860 ng·h/mL
half-life [3]: 4.44 h
inhibition (J774.A1 [4]): Active
Stability [5]: Stable
Activity (Mus musculus [6]): Active
Activity (Mus musculus [7]): Active
Activity [8]: inactive
Activity [9]: Non-toxic
Activity (Mus musculus [10]): Active
inhibition (J774.A1 [11]): Active
Activity (Mus musculus [12]): Active
Activity (Mus musculus [13]): Active
Activity (Mus musculus [14]): Active
Activity (Mus musculus [15]): Active
bioavailability [16]: 20.7%
AUC(0-inf) [17]: 698 ng·h/mL
Cmax [18]: 1080 ng/mL
IC50 (J774.A1 [19]): 240 nM
Stability [20]: Stable
Activity [21]: Non-toxic
Activity (Mus musculus [22]): Active
IC50 (J774.A1 [23]): 3280 nM
Activity (Mus musculus [24]): Active
